# Experimental data: ChEMBL document CHEMBL3727350, “Agents and methods for treating ischemic and other diseases” (2014)
# Calls of active or inactive are those of the source. The rule behind the calls is not given here.
# Target: Transient receptor potential cation channel subfamily M member 7 (Mus musculus) (UniProt Q923J1)
# Assay: Inhibition of Tet-induced Flag-tagged mouse TRPM7 expressed in HEK293 cells assessed as inhibition of channel-mediated cell death in presence of Mg2+ incubated for 24 to 48 hrs by propidium iodide uptake assay
# Type: cell-based
# Parameters: concentration or dose not given beside the values
# Settings: not given
# Transient receptor potential cation channel subfamily M member 7 (Mus musculus), sequence (Q923J1 whole entry): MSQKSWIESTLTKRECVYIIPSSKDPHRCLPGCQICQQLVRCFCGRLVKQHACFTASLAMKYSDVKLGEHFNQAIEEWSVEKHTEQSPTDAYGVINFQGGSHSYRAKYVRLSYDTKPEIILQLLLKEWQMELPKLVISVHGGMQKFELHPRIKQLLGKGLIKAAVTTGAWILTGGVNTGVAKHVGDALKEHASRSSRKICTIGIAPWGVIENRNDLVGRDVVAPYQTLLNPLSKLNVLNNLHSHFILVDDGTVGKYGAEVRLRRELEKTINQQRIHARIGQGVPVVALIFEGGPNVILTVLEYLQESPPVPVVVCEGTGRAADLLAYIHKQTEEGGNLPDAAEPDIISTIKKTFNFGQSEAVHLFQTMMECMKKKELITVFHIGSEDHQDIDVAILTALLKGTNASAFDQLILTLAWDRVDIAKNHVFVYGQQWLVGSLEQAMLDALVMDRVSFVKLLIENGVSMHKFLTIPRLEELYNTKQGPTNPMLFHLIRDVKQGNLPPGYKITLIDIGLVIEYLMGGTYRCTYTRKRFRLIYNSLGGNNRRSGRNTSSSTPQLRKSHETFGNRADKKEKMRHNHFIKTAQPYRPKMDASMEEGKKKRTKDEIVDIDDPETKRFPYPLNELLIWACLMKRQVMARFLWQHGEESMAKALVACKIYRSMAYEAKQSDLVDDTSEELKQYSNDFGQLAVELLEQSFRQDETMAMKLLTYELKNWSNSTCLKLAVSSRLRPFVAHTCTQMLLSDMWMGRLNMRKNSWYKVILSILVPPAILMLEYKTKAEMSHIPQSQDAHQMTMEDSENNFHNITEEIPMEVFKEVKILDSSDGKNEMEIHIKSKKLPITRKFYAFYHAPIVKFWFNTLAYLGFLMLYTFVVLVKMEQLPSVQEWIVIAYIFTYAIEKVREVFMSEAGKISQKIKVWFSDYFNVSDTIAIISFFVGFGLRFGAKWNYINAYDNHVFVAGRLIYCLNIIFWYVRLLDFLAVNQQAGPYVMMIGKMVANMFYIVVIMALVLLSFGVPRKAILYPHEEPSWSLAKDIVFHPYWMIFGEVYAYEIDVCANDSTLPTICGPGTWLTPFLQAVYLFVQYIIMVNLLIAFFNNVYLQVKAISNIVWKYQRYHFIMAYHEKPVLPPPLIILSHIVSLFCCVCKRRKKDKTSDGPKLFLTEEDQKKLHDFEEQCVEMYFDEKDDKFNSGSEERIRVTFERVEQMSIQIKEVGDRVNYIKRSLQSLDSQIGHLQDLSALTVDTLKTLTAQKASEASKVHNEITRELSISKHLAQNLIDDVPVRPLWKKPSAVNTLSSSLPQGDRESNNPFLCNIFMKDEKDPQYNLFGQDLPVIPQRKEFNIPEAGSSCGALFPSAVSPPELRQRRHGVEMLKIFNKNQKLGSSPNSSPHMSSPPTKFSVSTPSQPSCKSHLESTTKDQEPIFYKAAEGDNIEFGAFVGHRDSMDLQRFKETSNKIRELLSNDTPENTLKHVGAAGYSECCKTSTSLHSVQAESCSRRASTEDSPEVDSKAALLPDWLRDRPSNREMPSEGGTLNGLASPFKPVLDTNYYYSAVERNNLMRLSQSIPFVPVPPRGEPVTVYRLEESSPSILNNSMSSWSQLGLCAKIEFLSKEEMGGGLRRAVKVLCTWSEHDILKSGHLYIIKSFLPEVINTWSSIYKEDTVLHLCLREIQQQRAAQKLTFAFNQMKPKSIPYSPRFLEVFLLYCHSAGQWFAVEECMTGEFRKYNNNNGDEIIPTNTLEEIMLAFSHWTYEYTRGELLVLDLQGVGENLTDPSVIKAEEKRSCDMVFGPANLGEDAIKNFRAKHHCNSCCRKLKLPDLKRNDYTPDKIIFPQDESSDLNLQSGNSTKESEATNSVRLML
row,Compound,inhibition
1,Cc1cc(C2CCCCC2)n(O)c(=O)c1,Active

# Same assay, conditions: concentration not given here
row,Compound,inhibition
1,Clc1ccc(-c2noc(-c3sccc3Cl)n2)cc1,60%
2,COc1ccc(-c2[nH]ncc2CN2CCC(O)(c3ccc(Cl)cc3)CC2)cc1,< 30%
3,C#CCOC(=O)NC(=O)c1c(-c2ccc(Cl)cc2)n[nH]c1SC,< 30%
4,Brc1ccc2nc(C34CC5CC(CC(C5)C3)C4)cn2c1,60%
5,CCOC(C)CNC(=S)N/N=C/c1cccnc1 (configuration not stated),< 30%
6,Cc1onc(-c2ccccc2Cl)c1C(=O)Nc1cccc2cccnc12,60%
7,Fc1ccc(CN2CCN(Cc3c[nH]c4ccccc34)CC2)cc1,70%
8,O=C(Oc1ccc([N+](=O)[O-])cc1)c1c(Cl)cccc1Cl,50%
9,O=C(/C=C/c1cccs1)NC(=S)Nc1ccccc1Cl,< 30%
10,FC(F)(F)c1ccc(C2c3ccsc3CCN2C(=S)Nc2ccc(Cl)cc2Cl)cc1 (configuration not stated),70%
11,O=C1NC(=S)S/C1=C\c1cccc([N+](=O)[O-])c1,< 30%
12,Cn1nc(-c2ccc(Cl)cc2)cc1NS(=O)(=O)c1cccc2nonc12,< 30%
13,Cc1ccc(S(=O)(=O)NCCN2CCN(C(=O)OC(C)(C)C)CC2)cc1,< 30%
14,Fc1ccc(C2CN3C(=N2)C=Cc2ccccc23)cc1 (configuration not stated),< 30%
15,COC(=O)C(O)(c1ccc(NC(=O)Nc2ccc(Cl)cc2)cc1)C(F)(F)F (configuration not stated),50%
16,O=c1c(Cc2ccc(Br)cc2)csc2ccccc12,< 30%
17,CCOC(=O)c1nn(-c2cccc(Cl)c2)cc(Sc2ccc(Cl)cc2)c1=O,40%
18,CCOC(=O)C1=C(C)NC(=O)NC1c1cccc2ccccc12 (configuration not stated),< 30%
19,CCOC(=O)C(Nc1ccccc1)C(=O)OCC,30%
20,CCOC(=O)c1cc2c(NC(=O)c3ccc(Cl)cc3)c(C(=O)OCC)sc2nc1C(F)(F)F,< 30%
21,Oc1cc(C(F)(F)F)nc(SCc2ccccc2)n1,80%

row,Compound,inhibition
1,C#Cc1cccc(NC(=O)c2c(-c3c(Cl)cccc3Cl)noc2C)c1,< 30%
2,O=C(CSC1CN(C(c2ccccc2)c2ccccc2)C1)N/N=C/c1ccncc1,50%
3,CC(=O)OC[C@H](OC(C)=O)[C@@H](OC(C)=O)[C@@H](OC(C)=O)[C@H](OC(C)=O)c1nnn[nH]1,< 30%
4,c1ccc(/N=c2/[n-]n(-c3ccccc3)c[n+]2-c2ccccc2)cc1,< 30%
5,Cc1cc(SCc2nnc(-c3ccc([N+](=O)[O-])c(C)c3)o2)c(C)cc1Cl,80%
6,Cc1cccn2cc(-c3ccccc3Cl)nc12,30%
7,Cc1ccc(S(=O)(=O)Nc2ccccc2Oc2ccccc2)cc1,< 30%
8,CC(=O)C(C#N)c1nc(-c2ccc(Cl)c(C)c2)cs1 (configuration not stated),70%
9,c1ccc2c(CN3CCN(Cc4ccc5c(c4)OCO5)CC3)c[nH]c2c1,60%
10,O=C(O)c1cc(C(F)(F)F)cc(C(F)(F)F)c1,< 30%
11,Oc1cc(C(F)(F)F)nc2ccc(F)cc12,80%
12,COc1ccc(C(=O)Nc2c(-c3cccc(C(F)(F)F)c3)c(C(F)(F)F)nn2C)cc1OC,< 30%
13,N#Cc1ccc(/C=N/Nc2ncc(-c3ccc4c(c3)OCCCO4)s2)cc1,70%
14,O=C(/C=N/O)Nc1ccccc1F,< 30%
15,O=S(=O)(CCN1CCC(n2cccc2)CC1)c1ccc(F)cc1,40%
16,CC(C)NC(=S)Nc1ccc2c(c1)S(=O)(=O)C=C2,< 30%
17,Cc1cc2c(cc1C)CSC(C)(c1ccc(F)cc1)SC2,< 30%
18,CC(=O)Nc1cc(C)ccc1C,< 30%
19,Cc1onc(-c2c(Cl)cccc2Cl)c1C(=O)Oc1ccccc1,< 30%
20,CC[n+]1c(/C=C/c2ccc(OC)cc2)ccc2ccccc21,< 30%
21,CSc1scc(NC(=O)Nc2cccc(Cl)c2)c1S(=O)(=O)C(C)C,60%

row,Compound,inhibition
1,CC(=O)Nc1ccc(S(=O)(=O)NNc2c(Cl)cncc2Cl)cc1Cl,50%
2,N/C(=N\OC(=O)c1ccc(OCC(F)(F)F)nc1)c1ccc(OC(F)(F)F)cc1,< 30%
3,CCOC(=O)C(=CNc1cc(OC)cc(C(F)(F)F)c1)C(=O)OCC,70%
4,COc1c(C(C)(C)C)cc(/N=C/c2ccccc2O)c(C)c1/N=C/c1ccccc1O,60%
5,CCOC(=O)c1c(-n2c(C)ccc2C)sc2c1CCCC2,70%
6,O=c1oc2cc(O)ccc2c(O)c1Cc1ccc(Cl)c(Cl)c1,80%
7,O=S(=O)(CS(=O)(=O)Oc1ccc(Cl)cc1Cl)Oc1ccc(Cl)cc1Cl,< 30%
8,CCOC(=O)C(=CNNC(=O)c1cccs1)C(=O)OCC,60%
9,O=C(c1cc(Br)cc2c1OCC2)N1CCOCC1,< 30%
10,O=c1ccn(-c2ccc(F)cc2)nc1-c1ccnc(SCc2ccc(C(F)(F)F)cc2)n1,< 30%
11,CSc1nnc(CN2C(=O)CSc3ccc(C(F)(F)F)cc32)n1C,< 30%
12,c1ccc2c(c1)Nc1nc3ccccc3nc1N2,< 30%
13,CO[C@@H]1O[C@@H]2CO[C@H](COC(C)=O)[C@]3(OC(C)=O)CO[C@H](OC2[C@H](OC(C)=O)[C@H]1OC(C)=O)[C@@H](OC(C)=O)[C@@H]3OC(C)=O (some centres not stated),40%
14,CSC(SC)=C(C#N)C(=O)c1ccccc1Cl,< 30%
15,CN(C)c1cc(-c2cc(Cl)sc2Cl)oc(=O)c1Cl,< 30%
16,CC(C)(C)c1ccc(NC(=O)/C=C/C(=O)O)cc1,< 30%
17,O=C(Nc1ccc(OC(F)(F)F)cc1)Nc1cc(-c2ccccc2)n[nH]1,< 30%
18,N#Cc1ccc2[nH]cc(CCN(Cc3ccccc3)Cc3ccccc3)c2c1,< 30%
19,CC(=O)OC[C@H]1OC(OC(C)(C)C)[C@H](OC(C)=O)[C@@H](OC(C)=O)[C@@H]1OC(C)=O (some centres not stated),40%
20,COc1ccc(-c2[nH]ncc2CN2CCN(c3ccc(F)cc3)CC2)cc1,< 30%
21,O=C(Oc1ccccc1)c1csc(C2COc3ccccc3O2)n1 (configuration not stated),< 30%

row,Compound,inhibition
1,Cc1cc(C)c(-n2nnnc2SCC(=O)Nc2ccccc2Cl)c(C)c1,< 30%
2,CCOC(=O)C(C#N)Cc1c(C)c(C)c(C)c(C)c1C (configuration not stated),< 30%
3,CC(C)(C)OC(=O)N1CCN(c2ccc(NS(=O)(=O)c3ccc(Cl)cc3)cn2)CC1,< 30%
4,Cc1ccc(C(=O)Nc2cccnc2Oc2ccc(C(C)(C)C)cc2)cc1C,60%
5,Cc1cc(-c2nnc(C(F)(F)F)o2)ccc1NC(=S)Nc1ccc(Cl)cc1Cl,70%
6,CC(C)(C)S(=O)(=O)/C(C#N)=C/N/N=C/c1ccccc1Cl,< 30%
7,CCOC(=O)C(=CNNS(=O)(=O)c1cc(C(F)(F)F)cc(C(F)(F)F)c1)C(=O)OCC,40%
8,Cc1ccc(-c2nc(NC(=O)Nc3ccccc3)sc2C)cc1Cl,< 30%
9,Cc1ccc(S(=O)(=O)Nc2ccc(C)cc2NS(=O)(=O)c2ccc(Cl)cc2)cc1,40%
10,FC(F)(F)c1ccccc1NC(=S)N1CCCN(c2nc3ccc(Cl)cc3s2)CC1,60%
11,O=C(O)C1Cc2ccccc2CN1 (configuration not stated),< 30%
12,CCCCCCCSc1nnc[nH]1,70%
13,CSc1ncc2c(n1)CC(C)(C)C/C2=N/OC(=O)c1ccc(Cl)cc1,< 30%
14,Cc1c(C)c(C)c(CO/N=C/c2cccs2)c(C)c1C,70%
15,Cc1cc(S(=O)(=O)Cc2noc(-c3c(C)noc3C)n2)c(C)cc1Cl,40%
16,COC(=O)/C(=C/N(C)C)NC(=O)c1ccccc1,< 30%
17,Clc1cc(Cl)c(N/N=C/c2cc(C#Cc3ccccc3)cs2)c(Cl)c1,50%
18,CCc1ccc2[nH]c(C(=O)N(C)c3ccc(F)cc3F)cc2c1,< 30%
